Conditions: exposure to liquid water under ambient conditions
Description: The relative hydrophobicity and hydrophilicity of the R groups can be easily adjusted to tailor the hydrolysis rate upon exposure to aqueous medium, and therefore the release rate of the active R*OH.

| hydrolysis rate | Structure (SMILES) |
| --- | --- |
| hydrolyzed rapidly | CC1CCC(C(C)C)C(OC(=O)c2ccc[n+](C)c2)C1.[Cl-] (centres unmarked) |
| hydrolyzed rapidly | Cc1ccc(C(C)C)c(OC(=O)c2ccc[n+](C)c2)c1.[Cl-] |
